In ChEMBL document CHEMBL1201862, “PubChem BioAssay data set” (2004):
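Each compound was tested at five concentrations against cells in 96-well plates for 48 hours. Here, GI50 denotes the concentration required for 50% inhibition of growth.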 Calls of active or inactive are those of the source. Rule as the data show it: active = GI50 up to about 1.1 µM and inactive = higher.

Legend:
Assay in all cases: NCI anticancer screen, dose series, 48 h
KM12 = system: KM12
K562 = system: K562
SK-MEL-5 = system: SK-MEL-5
SF-268 = system: SF-268
SN12C = system: SN12C
OVCAR-4 = system: OVCAR-4
OVCAR-5 = system: OVCAR-5
A498 = system: A498
RPMI-8226 = system: RPMI-8226
CCRF-CEM = system: CCRF-CEM
SW-620 = system: SW-620
OVCAR-3 = system: OVCAR-3
U-251 = system: U-251
HOP-92 = system: HOP-92
SF-295 = system: SF-295
HCT-116 = system: HCT-116
Malme-3M = system: Malme-3M
SNB-75 = system: SNB-75
UACC-62 = system: UACC-62
SK-MEL-28 = system: SK-MEL-28

Q: Which results are given for CCNc1cnc2c(n1)c(=O)n(C)c(=O)n2C?
A: GI50 (KM12): > 100 µM (inactive); GI50 (K562): > 100 µM (inactive); GI50 (SK-MEL-5): > 100 µM (inactive); GI50 (SF-268): > 100 µM (inactive); GI50 (SN12C): > 100 µM (inactive); GI50 (OVCAR-4): > 100 µM (inactive); GI50 (OVCAR-5): > 100 µM (inactive); GI50 (A498): > 100 µM (inactive); GI50 (RPMI-8226): > 100 µM (inactive); GI50 (CCRF-CEM): > 100 µM (inactive); GI50 (SW-620): > 100 µM (inactive); GI50 (OVCAR-3): > 100 µM (inactive); GI50 (U-251): > 100 µM (inactive); GI50 (HOP-92): > 100 µM (inactive); GI50 (SF-295): > 100 µM (inactive); GI50 (HCT-116): > 100 µM (inactive); GI50 (Malme-3M): > 100 µM (inactive); GI50 (SNB-75): 48.9 µM (inactive); GI50 (UACC-62): > 100 µM (inactive); GI50 (SK-MEL-28): > 100 µM (inactive)

Q: What does the source list for CC(C)=CCC/C(C)=C/CCC1(C)C=Cc2c(c3ccccc3oc2=O)O1 (stereo not given)?
A: GI50 (KM12): 18.5 µM (inactive); GI50 (K562): 23.6 µM (inactive); GI50 (SK-MEL-5): 14.7 µM (inactive); GI50 (SF-268): 20.6 µM (inactive); GI50 (SN12C): 16.8 µM (inactive); GI50 (OVCAR-4): 14.5 µM (inactive); GI50 (OVCAR-5): 18.6 µM (inactive); GI50 (A498): 13.4 µM (inactive); GI50 (RPMI-8226): 18.2 µM (inactive); GI50 (CCRF-CEM): 38.5 µM (inactive); GI50 (SW-620): 19.4 µM (inactive); GI50 (OVCAR-3): 18.1 µM (inactive); GI50 (U-251): 15.3 µM (inactive); GI50 (HOP-92): 12.2 µM (inactive); GI50 (SF-295): 18.8 µM (inactive); GI50 (HCT-116): 14.8 µM (inactive); GI50 (Malme-3M): 27.6 µM (inactive); GI50 (SNB-75): 13.4 µM (inactive); GI50 (UACC-62): 10.2 µM (inactive); GI50 (SK-MEL-28): 16.1 µM (inactive)

Q: How did the GI50 (KM12) turn out when COC1=C2CC(C)CC(OC)C(O)C(C)/C=C(\C)C(OC(N)=O)C(OC)/C=C\C=C(/C)C(=O)NC(=C(/C=N/C(C)(C)C)C1=O)C2=O (stereo not given) was run?
A: 4.62 µM (inactive)

Q: And the GI50 (K562)?
A: 0.82 µM (active)

Q: And the GI50 (SK-MEL-5)?
A: 2.79 µM (inactive)

Q: What about the GI50 (SF-268) of the same compound?
A: 6.3 µM (inactive)

Q: And the GI50 (SN12C)?
A: 2.04 µM (inactive)

Q: And the GI50 (OVCAR-4)?
A: 1.71 µM (inactive)

Q: What about the GI50 (OVCAR-5) of the same compound?
A: 37.3 µM (inactive)

Q: And the GI50 (A498)?
A: 3.57 µM (inactive)

Q: And the GI50 (RPMI-8226)?
A: 0.946 µM (active)

Q: And the GI50 (CCRF-CEM)?
A: 0.857 µM (active)

Q: What about the GI50 (SW-620) of the same compound?
A: 3.73 µM (inactive)

Q: And the GI50 (OVCAR-3)?
A: 0.585 µM (active)

Q: And the GI50 (U-251)?
A: 1.43 µM (inactive)

Q: What about the GI50 (HOP-92) of the same compound?
A: 0.303 µM (active)

Q: And the GI50 (SF-295)?
A: 5.02 µM (inactive)

Q: And the GI50 (HCT-116)?
A: 3.69 µM (inactive)

Q: And the GI50 (Malme-3M)?
A: 1.89 µM (inactive)

Q: And the GI50 (SNB-75)?
A: 0.767 µM (active)

Q: What about the GI50 (UACC-62) of the same compound?
A: 5.38 µM (inactive)

Q: What about the GI50 (SK-MEL-28) of the same compound?
A: 4.97 µM (inactive)

Q: Which results are given for CC1(C)O[C@@H](C[C@]2(C#N)C[C@H](CCl)OC(C)(C)O2)C[C@@H](C#N)O1?
A: GI50 (KM12): > 100 µM (inactive); GI50 (K562): > 100 µM (inactive); GI50 (SK-MEL-5): > 100 µM (inactive); GI50 (SF-268): > 100 µM (inactive); GI50 (SN12C): > 100 µM (inactive); GI50 (OVCAR-4): > 100 µM (inactive); GI50 (OVCAR-5): > 100 µM (inactive); GI50 (A498): > 100 µM (inactive); GI50 (RPMI-8226): > 100 µM (inactive); GI50 (CCRF-CEM): > 100 µM (inactive); GI50 (SW-620): > 100 µM (inactive); GI50 (OVCAR-3): > 100 µM (inactive); GI50 (U-251): > 100 µM (inactive); GI50 (HOP-92): 78.9 µM (inactive); GI50 (SF-295): > 100 µM (inactive); GI50 (HCT-116): > 100 µM (inactive); GI50 (Malme-3M): > 100 µM (inactive); GI50 (SNB-75): > 100 µM (inactive); GI50 (UACC-62): > 100 µM (inactive); GI50 (SK-MEL-28): > 100 µM (inactive)

Q: With C=C1C[C@@H]2C[C@@H](C)CC(O)[C@]2(CCCN)C1O (stereo not given in full) as the compound, how does the GI50 (KM12) read?
A: > 100 µM (inactive)

Q: What about the GI50 (K562) of the same compound?
A: > 100 µM (inactive)

Q: And the GI50 (SK-MEL-5)?
A: > 100 µM (inactive)

Q: What about the GI50 (SF-268) of the same compound?
A: > 100 µM (inactive)

Q: And the GI50 (SN12C)?
A: > 100 µM (inactive)

Q: What about the GI50 (OVCAR-4) of the same compound?
A: > 100 µM (inactive)

Q: And the GI50 (OVCAR-5)?
A: > 100 µM (inactive)

Q: And the GI50 (A498)?
A: > 100 µM (inactive)

Q: What about the GI50 (RPMI-8226) of the same compound?
A: > 100 µM (inactive)

Q: What about the GI50 (CCRF-CEM) of the same compound?
A: > 100 µM (inactive)

Q: What about the GI50 (SW-620) of the same compound?
A: > 100 µM (inactive)

Q: What about the GI50 (OVCAR-3) of the same compound?
A: > 100 µM (inactive)

Q: And the GI50 (U-251)?
A: > 100 µM (inactive)

Q: What about the GI50 (HOP-92) of the same compound?
A: > 100 µM (inactive)

Q: What about the GI50 (SF-295) of the same compound?
A: > 100 µM (inactive)

Q: And the GI50 (HCT-116)?
A: > 100 µM (inactive)

Q: And the GI50 (Malme-3M)?
A: > 100 µM (inactive)

Q: What about the GI50 (SNB-75) of the same compound?
A: > 100 µM (inactive)

Q: And the GI50 (UACC-62)?
A: > 100 µM (inactive)

Q: What about the GI50 (SK-MEL-28) of the same compound?
A: > 100 µM (inactive)
